Our source for the IC50 and Ki values is ChEMBL document CHEMBL1133139, “Stereochemistry of halopyridyl and thiazolyl thiourea compounds is a major determinant of their potency as nonnucleoside inhibitors of HIV-1 reverse transcriptase” (Bioorg Med Chem Lett, 2000).

Molecules are shown by their SMILES. pIC50, pKi: −log10 of the molar value.

Test [1] addresses T1, Human immunodeficiency virus type 1 reverse transcriptase (Human immunodeficiency virus 1, UniProt Q72547). As to the kind of experiment: Compound was evaluated for its inhibitory activity against recombinant HIV-1 Reverse transcriptase using cell free RT inhibition assay.
The subject of test [2] is Human immunodeficiency virus 1. As to the kind of experiment: Inhibitory activity against NNI-resistant HIV-1 strain A17 with Y181C mutation. Type of test: functional, organism-based.
The next test relates to H9. As to the kind of experiment: Inhibitory activity against multidrug resistant HIV-1 strain RT-MDR. The note with it: Homo sapiens. The class given is functional, cell-based.
Test [3] concerns Human immunodeficiency virus 1. The test can be described thus: Inhibitory activity against NNI-resistant HIV-1 strain A17 with Y181C,K103N mutation. The class given is functional, organism-based.
Test [4] in a line: Inhibit the replication of the HIV-1 strain […] in human peripheral blood mononuclear cell. Type of test: functional.
The target in test [5] is T1, Human immunodeficiency virus type 1 reverse transcriptase. The test can be described thus: Binding affinity against HIV reverse transcriptase (Estimated Ki).
Test [6] can be described thus: Compound was evaluated for its ability to inhibit the replication of the HIV-1 strain […] in human peripheral blood mononuclear cells. The class given is functional.

For `C[C@H](/N=C(\S)Nc1ccc(Cl)cn1)c1ccccc1`, the pIC50 in test [1] is less than 4.00.

As for `C[C@@H](NC(=S)Nc1ccc(Cl)cn1)c1ccccc1`, the pIC50 in test [2] is 6.70; in the test with H9 it was 8.00; in test [3], 4.99; in test [1], 5.92; in test [4] it was 8.00.

Take `C[C@@H](NC(=S)Nc1ccc(Br)cn1)C1CCCCC1`: the pKi in test [5] was 5.96. In addition, the pIC50 was 6.40 in test [2]; 6.70 with H9; 5.00 in test [3]; 5.92 in test [1]; 9.00 in test [6].

As to `Fc1ccccc1CCNC(=S)Nc1ccc(Br)cn1`, the pKi in test [5] is 6.22. Moreover, the pIC50 in test [2] was 6.70; in the test with H9, 8.30; in test [3], 4.39; in test [4], more than 9.00.

Regarding `C[C@@H](/N=C(\S)Nc1ccc(Cl)cn1)C1CCCCC1`, the pKi in test [5] is 5.92. Further, the pIC50 is 7.15 in test [2]; 7.22 with H9; 5.09 in test [3]; 5.85 in test [1]; 7.60 in test [4].

As for `C[C@H](NC(=S)Nc1ccccn1)C1CCCCC1`, the pKi in test [5] is less than 4.00. For the same compound, the pIC50 in test [1] is less than 4.00; in test [4], less than 6.00.

Consider `C[C@@H](/N=C(\S)Nc1ccccn1)C1CCCCC1`, for which, in test [5], the pKi is less than 4.00. For the same compound, the pIC50 is less than 4.00 in test [1] and less than 6.00 in test [4].

On to `C[C@H](/N=C(\S)Nc1ccc(Cl)cn1)C1CCCCC1`, for which the pKi in test [5] was less than 4.00. Moreover, the pIC50 was less than 4.00 in test [1] and less than 6.00 in test [4].

On to `C[C@@H](/N=C(\S)Nc1nccs1)C1CCCCC1`, for which the pKi in test [5] was 4.92. For the same compound, the pIC50 is 6.05 in test [2]; 5.25 with H9; 5.24 in test [3]; 4.89 in test [1]; 9.00 in test [4].

For the compound `C[C@@H](NC(=S)Nc1ccc(Br)cn1)c1ccccc1`, the pIC50 is 8.00 in test [2]; 8.30 in the test on H9; 5.57 in test [3]; 5.80 in test [1]; 8.00 in test [4].

On to `C[C@H](NC(=S)Nc1nccs1)C1CCCCC1`, for which the pKi in test [5] is less than 4.00. Moreover, the pIC50 in test [1] is less than 4.00; in test [4] it was less than 6.00.

Regarding `C[C@H](/N=C(\S)Nc1ccc(Br)cn1)C1CCCCC1`, the pKi in test [5] is less than 4.00. For the same compound, the pIC50 in test [1] was less than 4.00; in test [4], less than 6.00.

`C[C@H](/N=C(\S)Nc1ccc(Br)cn1)c1ccccc1`: the pIC50 was less than 4.00 in test [1] and less than 6.00 in test [4].

As to `CC(C)Nc1cccnc1N1CCN(C(=O)c2cc3cc(NS(C)(=O)=O)ccc3[nH]2)CC1` [DELAVIRDINE], the pIC50 in test [2] is 4.30; in the test on H9, 6.40; in test [3], less than 4.00; in test [4], 8.05.

As for `Cc1ccnc2c1NC(=O)c1cccnc1N2C1CC1` [NEVIRAPINE], the pIC50 is less than 4.00 in test [2], 5.30 with H9, less than 4.00 in test [3] and 7.47 in test [4].

Turning to `S=C(NCCc1ccccn1)Nc1ccc(Br)cn1` [TROVIRDINE], in test [5], the pKi was 6.22. The pIC50 in test [2] was 6.30; in the test on H9, 7.70; in test [3] it was less than 4.00; in test [4] it was 8.15.

The pIC50 is −log10 of the IC50, conventionally taken in molar units. By pKi is commonly meant −log10 of the Ki, conventionally taken in molar units.
